Data reported in patent US20240358721A1, “GASDERMIN-D INHIBITORS AND USES THEREOF FOR TREATING PULMONARY VASO-OCCLUSION” (UNIVERSITY OF PITTSBURGH-OF THE COMMONWEALTH SYSTEM OF …, priority 2021, published 2024).
Entries after “also recorded” stand apart in the source; their conditions may differ.

Test system: SCD-Selp−/− mice
Test: qFILM assessment of P-selectin-independent pulmonary vaso-occlusion in SCD-Selp−/− mice IV administered oxy-Hb
Assay type: in vivo, mouse
Details: IV 10 μmole/kg oxy-Hb with 10 mg/kg inhibitor vs oxy-Hb alone, 10 mg/kg
Excerpt: Quantitative fluorescence intravital lung microscopy (qFILM) was used to assess the absence or presence of platelet-neutrophil aggregate mediated pulmonary vaso-occlusion. Pulmonary microcirculation (pseudo-colored purple), neutrophils (red) and platelets (pseudo-colored green) were labeled in vivo by IV administration of FITC dextran, AF546-anti-Ly6G Ab and V450-anti-CD49b Ab, respectively. […] White arrows denote the direction of blood flow within the pulmonary arterioles. Alveoli are marked with asterisks. Scale bars 20 μm. The diameter of pulmonary arteriole in B-E is ˜22 μm, 32 μm, 31.5 μm, and 31 μm, respectively. […] Refer Online Data Supplement for details. […] The data for mice with SCD IV administered 10 oxy-Hb (n=5 mice; 75 FOVs) are included as black bars in FIGS. 1N and 1O for relative comparison. qFILM FOV size ˜65 536 μm^2. Data represent mean ±SE and are compared using Student t test. *P<0.05 (FIG. 1P) Schematic showing the main findings of the study. The sterile inflammatory milieu (DAMPs, IFN-I signaling, and ROS) in SCD promotes caspase-4 (humans) or caspase-11 (mouse)-dependent cleavage of neutrophil GSDMD into the active form GSDMD-NT, leading to the shedding of NETs in the liver microcirculation. Once shed, these NETs are carried by the blood as cNETs to the lung, where they promote neutrophil-platelet aggregation in the pulmonary arterioles, leading to PVO and lung injury (acute chest syndrome).
SCD-Selp^−/− mice were IV administered 10 μmole/kg oxy-Hb (10 oxy-Hb) without or with 10 mg/kg GSDMD inhibitor (Disulfiram). Quantitative fluorescence intravital lung microscopy (qFILM) was used to assess the absence or presence of pulmonary vasoocclusion using the same experimental scheme described in FIG. 1A. Pulmonary vasoocclusions (PVOs) were compared between treatment groups using following two parameters: Number of PVOs per Field of View (#PVOs/FOV) and number of large PVOs (with area>1000 μm^2) per FOV. […] The data for SCD mice IV administered 10 oxy-Hb (n=5 mice; 75 FOVs) is included as black bars in FIGS. 4A and 4B for relative comparison. FOV size˜65,536 μm^2. […]
(FIG. 5A) Experimental scheme: SCD or SCD-Selp^−/− mice were IV administered 10 μmole/kg oxy-Hb (10 oxy-Hb) without or with 10 mg/kg GSDMD inhibitors LDC75591 or Disulfiram. In FIGS. 5C-5D, venous blood was processed to generate PPP and cNETs detected in PPP using Imaging Flow Cytometry. Imaging Flow Cytometry data was quantified to estimate concentration of cNETs (#cNETs/μl of plasma). In FIGS. 5B, and 5E-5F, quantitative fluorescence intravital lung microscopy (qFILM) was used to detect arrival of circulating NETs (cNETs) within the lung microcirculation. Number of cNETs entering per FOV over a 1-minute duration (#cNETs/FOV/min) were quantified. […]

## COc1ccccc1-c1cc2n(n1)Cc1ccc(NC(C)=O)cc1OC2 [LDC7559]
  Number of PVOs per Field of View (#PVOs/FOV): significantly reduced; also recorded: threefold
  number of large PVOs (with area>1000 μm^2) per FOV: absent; also recorded: absence
